Some results are limits rather than exact numbers.

The target in the experiment is T1, BRAF V600E (Homo sapiens, UniProt P15056, V600E).
T1 construct: endogenous C-terminal HiBiT fusion tag on BRAF V600E allele; endogenous in cells; host or cells: A375 clone 1F10 (CRISPR-Cas9 knock-in of the HiBiT tag; parental A375 from ATCC)
Nature of the experiment: BRAF HiBiT degradation assay, C-terminal HiBiT-tagged BRAF V600E A375 cells (clone 1F10), Nano-Glo HiBiT Lytic assay. The settings on record: A375 (BRAF V600E); for DC50: DC50 at 50%: fitted conc. at Y=50; for Dmax: A-375, percentage protein degraded at maximal compound effect relative to DMSO. Format: cell-based. An excerpt:
An A375 cell line expressing a homozygous V600E mutation was purchased from ATCC (Manassas, VA, USA). An A375 clone 1F10 cell line with an endogenous C-terminal HiBiT fusion tag on BRAF V600E allele was generated internally using CRISPR-Cas9 technology and cultured in DMEM, high glucose supplemented with 10% FBS and 1× GlutaMAX. A HCT-116 BRAF−/− cell line overexpressing the C-terminal HiBiT-tagged G466V, G469A, and D594G mutants were generated by lentiviral transduction, externally at Biosettia Inc (San Diego, CA, USA). The stably transfected cells were cultured in RPMI media supplemented with 10% FBS, 1× GlutaMAX, and 0.25 μg/ml puromycin. DMEM medium, RPMI 1640 medium, GlutaMAX, fetal bovine serum (FBS), and puromycin were purchased from Gibco (Grand Island, NY, USA). HCT-116 BRAF−/− cells were purchased from Horizon Discovery (Waterbeach, UK).
The C-terminal HiBiT tagged BRAF A375 cells (monoclonal cell line, cell clone 1F10) were seeded at a density of 10,000 cells/well in 30 μL media (DMEM, high glucose supplemented with 10% FBS and 1× GlutaMAX) in white opaque 384-well plates (Corning #3570) from column 1 to column 23. The wildtype A375 cells were seeded in column 24 at the same cell density in 30 μL media. Cells were incubated at 37° C. with 5% CO2 for 24 h.
Intermediate compound dilution series (5-point, ranging from 5 mM to 0.5 μM, 10-fold dilutions in DMSO) were prepared in a source plate (Beckman Coulter cat. no. 001-16128). Final compound dilution series (11-point, ranging from 1 μM to 0.01 nM, half-log dilutions in DMSO) were stamped into the assay plate (Corning #3570, column 1-11 and 12-22) using the Echo Acoustic Liquid Handler (Beckman Coulter). Each compound was plated in duplicate, and the total volume of compound DMSO solution was 60 nL/well (0.2% final DMSO concentration). DMSO was included in wells A23-L23 and A24-L24. The DMSO-treated HiBiT-tagged samples served as Negative Control (NC) and the DMSO-treated wildtype samples served as Background Control (BC) for the HiBiT assay.
HiBiT signal was measured by a Nano-Glo HiBiT Lytic assay (Promega cat. no. N3050). HiBiT lytic detection reagent (Nano-Glo HiBiT Lytic Buffer with 1:50 Nano-Glo HiBiT Lytic Substrate and 1:100 LgBiT Protein, 40 μL) was added using Bravo. The mixture was incubated at room temperature, in the dark, and with gentle shaking for 10 min. Luminesce units (LU) were read on an EnVision plate reader 2105 (Perkin Elmer).
Percent protein remaining and viability remaining per sample were calculated as follows: […]
% Protein remaining values were plotted as a function of compound concentration. XC50 (DC50) values were determined by fitting curves using the following equation:
For the HiBiT degradation assay, the key parameters reported include: • The dose of compound that produces 50% degradation (DC50 at 50%): • DC50 at 50%: the Fitted X value (Conc.) at Y=50 (response) • Observed Dmax (Obs. Dmax) is the percentage protein degraded at maximal compound effect relative to DMSO-treated control: […]

T1 sequence (P15056 whole entry V600E, the tested form may be a part): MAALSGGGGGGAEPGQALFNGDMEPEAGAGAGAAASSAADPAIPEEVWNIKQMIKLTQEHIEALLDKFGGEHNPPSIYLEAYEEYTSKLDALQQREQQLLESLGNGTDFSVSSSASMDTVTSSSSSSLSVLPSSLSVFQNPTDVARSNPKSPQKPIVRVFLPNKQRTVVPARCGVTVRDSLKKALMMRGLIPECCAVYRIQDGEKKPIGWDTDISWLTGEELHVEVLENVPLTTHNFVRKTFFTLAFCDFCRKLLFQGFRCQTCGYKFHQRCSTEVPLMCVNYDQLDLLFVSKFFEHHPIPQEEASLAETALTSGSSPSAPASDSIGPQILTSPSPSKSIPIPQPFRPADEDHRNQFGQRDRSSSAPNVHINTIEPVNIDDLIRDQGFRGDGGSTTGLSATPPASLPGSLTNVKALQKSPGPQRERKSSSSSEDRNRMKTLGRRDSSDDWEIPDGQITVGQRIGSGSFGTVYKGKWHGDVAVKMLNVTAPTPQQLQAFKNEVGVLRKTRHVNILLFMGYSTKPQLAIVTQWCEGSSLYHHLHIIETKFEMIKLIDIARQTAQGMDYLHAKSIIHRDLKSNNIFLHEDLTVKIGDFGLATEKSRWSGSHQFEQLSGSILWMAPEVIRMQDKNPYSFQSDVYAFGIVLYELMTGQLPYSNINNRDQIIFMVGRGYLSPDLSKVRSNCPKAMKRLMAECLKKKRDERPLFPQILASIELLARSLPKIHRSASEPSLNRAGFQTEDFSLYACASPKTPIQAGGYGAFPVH

Regarding `CCCS(=O)(=O)Nc1cccc(-c2nc(-c3ccc(N4CCN(C(=O)CC5CCN(c6ccc(C7CCC(=O)NC7=O)cn6)CC5)CC4)cc3)sc2-c2ccnc(N)n2)c1F` (racemic) [Compound 189, Rac-N-{3-[5-(2-aminopyrimidin-4-yl)-2-(4-{4-[2-(1-{5-[(3R)-2,6-dioxopiperidin-3-yl]pyridin-2-yl}piperidin-4-yl)acetyl]piperazin-1-yl}phenyl)-1,3-thiazol-4-yl]-2-fluorophenyl}propane-1-sulfonamide], the DC50 (as a rule, the midpoint of the concentration-degradation curve) was less than 10 nM and the Dmax (commonly the largest share of the target that was removed) is greater than 70%.
In the case of `CCN(C)S(=O)(=O)Nc1cccc(-c2nc(C(C)(C)C)sc2-c2ccnc(Nc3ccc(N4CCN(C(=O)C5CN(c6ccc(C7CCC(=O)NC7=O)cn6)C5)CC4)cn3)n2)c1F` (racemic) [Compound 53, Rac-(3S)-3-[6-(3-{4-[6-({4-[2-tert-butyl-4-(3-{[ethyl(methyl)sulfamoyl]amino}-2-fluorophenyl)-1,3-thiazol-5-yl]pyrimidin-2-yl}amino)pyridin-3-yl]piperazine-1-carbonyl}azetidin-1-yl)pyridin-3-yl]piperidine-2,6-dione], the half-maximal degradation concentration (DC50) was less than 10 nM and the Dmax was greater than 70%.
In turn, `CCCS(=O)(=O)Nc1cccc(-c2nc(C(C)(C)C)sc2-c2ccnc(Nc3cccc(C4CCN(CC5(C)CCN(c6ccc(C7CCC(=O)NC7=O)cn6)CC5)CC4)c3)n2)c1F` (racemic) [Compound 73, Rac-N-[3-(2-tert-butyl-5-{2-[(3-{1-[(1-{5-[(3R)-2,6-dioxopiperidin-3-yl]pyridin-2-yl}-4-methylpiperidin-4-yl)methyl]piperidin-4-yl}phenyl)amino]pyrimidin-4-yl}-1,3-thiazol-4-yl)-2-fluorophenyl]propane-1-sulfonamide] returned a DC50 of 50 to 500 nM and a Dmax of 30 to 70%.
On the same counts, the results for `CCCS(=O)(=O)Nc1cccc(-c2nc(C(C)(C)C)sc2-c2ccnc(NC3CC4(C3)CN(CC[C@H]3CCN(c5ccc(C6CCC(=O)NC6=O)cn5)C3)C4)n2)c1F` (mixture of isomers) [Compound 172, N-[3-(2-tert-butyl-5-{2-[(2-{2-[(3S)-1-{5-[(3RS)-2,6-dioxopiperidin-3-yl]pyridin-2-yl}pyrrolidin-3-yl]ethyl}-2-azaspiro[3.3]heptan-6-yl)amino]pyrimidin-4-yl}-1,3-thiazol-4-yl)-2-fluorophenyl]propane-1-sulfonamide] are 50 to 500 nM and 30 to 70%.
On the same counts, the results for `CCCS(=O)(=O)Nc1cccc(-c2cn(C3CCN(C(=O)C4CCN(C(=O)C5CCN(c6ccc(C7CCC(=O)NC7=O)cc6)CC5)CC4)CC3)nc2-c2ccncc2)c1F` (racemic) [Compound 9, Rac-N-[3-(1-{1-[1-(1-{4-[(3R)-2,6-dioxopiperidin-3-yl]phenyl}piperidine-4-carbonyl)piperidine-4-carbonyl]piperidin-4-yl}-3-(pyridin-4-yl)-1H-pyrazol-4-yl)-2-fluorophenyl]propane-1-sulfonamide] are 50 to 500 nM and greater than 70%.
`CCCS(=O)(=O)Nc1cccc(-c2nc(C3CCN(C(=O)C4CCN(C(=O)C5CCN(c6ccc([C@@H]7CCC(=O)NC7=O)cc6)CC5)CC4)CC3)sc2-c2ccncc2)c1F` [Compound 200, N-[3-(2-{1-[1-(1-{4-[(3S)-2,6-dioxopiperidin-3-yl]phenyl}piperidine-4-carbonyl)piperidine-4-carbonyl]piperidin-4-yl}-5-(pyridin-4-yl)-1,3-thiazol-4-yl)-2-fluorophenyl]propane-1-sulfonamide]: the DC50 lay in the range of 10 to 50 nM and the Dmax is greater than 70%.
